The text below walks through data of US11649255B2, “Indazoles as hematopoietic progenitor kinase 1 (HPK1) inhibitors and methods using same” (1st Biotherapeutics, Inc., priority 2020, dated 2023).

Each structure is given as a SMILES string.

The target of this experiment is recombinant human HPK1 (Homo sapiens (Human), UniProt Q92918). In words: HPK1 kinase assay (ADP-Glo). The experiment is classed as biochemical. The settings on record: 25 μM ATP, MBP substrate. An outline of the steps: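 Activity was read as ADP formed, detected by ADP-Glo luminescence after the reaction of 5 ng recombinant human HPK1 with MBP and ATP (stocks 0.5 μg/μl and 25 μM) for 40 min at 30 °C. Buffer was Tris pH 7.5 with MgCl2, BSA and DTT, with compound in 0.5% DMSO. IC50 came from inhibition curves.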
Sequence of recombinant human HPK1 (Q92918 whole entry): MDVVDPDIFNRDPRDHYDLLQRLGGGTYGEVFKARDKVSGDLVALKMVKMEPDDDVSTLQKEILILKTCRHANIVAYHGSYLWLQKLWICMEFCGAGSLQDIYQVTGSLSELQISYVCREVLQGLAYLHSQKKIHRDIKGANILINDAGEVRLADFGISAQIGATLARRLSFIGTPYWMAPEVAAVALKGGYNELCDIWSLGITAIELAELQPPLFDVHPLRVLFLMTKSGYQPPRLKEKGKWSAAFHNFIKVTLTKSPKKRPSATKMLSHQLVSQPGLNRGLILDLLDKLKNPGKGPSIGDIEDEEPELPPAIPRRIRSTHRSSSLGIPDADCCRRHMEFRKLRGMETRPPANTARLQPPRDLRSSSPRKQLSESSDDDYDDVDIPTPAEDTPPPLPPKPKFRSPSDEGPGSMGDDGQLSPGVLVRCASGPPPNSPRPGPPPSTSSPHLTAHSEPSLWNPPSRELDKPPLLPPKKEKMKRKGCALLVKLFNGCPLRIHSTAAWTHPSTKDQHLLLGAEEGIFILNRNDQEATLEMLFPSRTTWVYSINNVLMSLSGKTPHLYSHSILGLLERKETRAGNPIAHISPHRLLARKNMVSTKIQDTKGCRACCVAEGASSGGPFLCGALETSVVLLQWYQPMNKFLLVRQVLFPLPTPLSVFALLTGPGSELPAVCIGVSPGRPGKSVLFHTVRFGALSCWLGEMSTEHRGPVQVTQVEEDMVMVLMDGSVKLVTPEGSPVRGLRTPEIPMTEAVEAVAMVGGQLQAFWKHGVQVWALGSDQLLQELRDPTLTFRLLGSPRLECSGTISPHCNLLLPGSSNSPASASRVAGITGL
Regarding `Cc1c(F)cc2[nH]ncc2c1-c1ccn2nc(NC(=O)[C@@H]3C[C@@H]3F)cc2c1` [Example 460, (1S,2S)-2-fluoro-N-(5-(6-fluoro-5-methyl-1H-indazol-4-yl)pyrazolo[1,5-a]pyridin-2-yl)cyclopropane-1-carboxamide], the IC50 was less than 100 nM.

`CCOc1c(F)cc2[nH]ncc2c1-c1ccc2nc(NC(=O)[C@@H]3C[C@@H]3F)cn2c1` [Example 328, (1S,2S)-N-(6-(5-ethoxy-6-fluoro-1H-indazol-4-yl)imidazo[1,2-a]pyridin-2-yl)-2-fluorocyclopropane-1-carboxamide]: the IC50 is less than 100 nM.

As for `O=C(Nc1nc2ccc(-c3c(I)c(F)cc4[nH]ncc34)cc2s1)[C@@H]1C[C@@H]1F` [Example 48, (1S,2S)-2-fluoro-N-(6-(6-fluoro-5-iodo-1H-indazol-4-yl)benzo[d]thiazol-2-yl)cyclopropane-1-carboxamide], the IC50 is less than 100 nM.

Take `O=C(Nc1cn2cc(-c3c(Cl)c(F)c(C(F)F)c4[nH]ncc34)ccc2n1)[C@@H]1C[C@@H]1F` [Example 331, (1S,2S)-N-(6-(5-chloro-7-(difluoromethyl)-6-fluoro-1H-indazol-4-yl)imidazo[1,2-a]pyridin-2-yl)-2-fluorocyclopropane-1-carboxamide]: the IC50 was less than 100 nM.

Consider `CCNc1c(F)c(Cl)c(-c2ccc3nc(NC(=O)[C@@H]4C[C@@H]4F)sc3n2)c2cn[nH]c12` [Example 159, (1S,2S)-N-(5-(5-chloro-7-(ethylamino)-6-fluoro-1H-indazol-4-yl)thiazolo[5,4-b]pyridin-2-yl)-2-fluorocyclopropane-1-carboxamide], for which the IC50 is less than 100 nM.

Regarding `CC(NC1(C#N)CC1)c1c(F)c(Cl)c(-c2ccc3nc(NC(=O)[C@@H]4C[C@@H]4F)cn3c2)c2cn[nH]c12` (stereo partly drawn) [Example 429, (1S,2S)-N-(6-(5-chloro-7-(1-((1-cyanocyclopropyl)amino)ethyl)-6-fluoro-1H-indazol-4-yl)imidazo[1,2-a]pyridin-2-yl)-2-fluorocyclopropane-1-carboxamide], the IC50 is less than 100 nM.

Take `CN(C)C(=O)c1c(F)cc(-c2ccc3nc(NC(=O)[C@@H]4C[C@@H]4F)sc3c2)c2cn[nH]c12` [Example 144, 6-fluoro-4-(2-((1S,2S)-2-fluorocyclopropane-1-carboxamido)benzo[d]thiazol-6-yl)-N,N-dimethyl-1H-indazole-7-carboxamide]: the IC50 was in the range of 101 to 500 nM.

Regarding `C=Cc1n[nH]c2cc(F)c(C)c(-c3ccn4nc(NC(=O)[C@@H]5C[C@@H]5F)cc4c3)c12` [Example 474, (1S,2S)-2-fluoro-N-(5-(6-fluoro-5-methyl-3-vinyl-1H-indazol-4-yl)pyrazolo[1,5-a]pyridin-2-yl)cyclopropane-1-carboxamide], the IC50 was 101 to 500 nM.

As for `O=C(Nc1cn2cc(-c3c(Cl)c(F)c(N4CCC4)c4[nH]ncc34)ccc2n1)[C@@H]1C[C@@H]1F` [Example 283, (1S,2S)-N-(6-(7-(azetidin-1-yl)-5-chloro-6-fluoro-1H-indazol-4-yl)imidazo[1,2-a]pyridin-2-yl)-2-fluorocyclopropane-1-carboxamide], the IC50 was less than 100 nM.

Consider `CCCCC(=O)Nc1nc2ccc(-c3c(C)ccc4[nH]ncc34)cc2s1` [Example 9, N-(6-(5-methyl-1H-indazol-4-yl)benzo[d]thiazol-2-yl)pentanamide], for which the IC50 is greater than 1000 nM.

Take `CSc1ccc2[nH]ncc2c1-c1ccc2nc(NC(=O)C3CC3)cn2c1` [Example 247, N-(6-(5-(methylthio)-1H-indazol-4-yl)imidazo[1,2-a]pyridin-2-yl)cyclopropanecarboxamide]: the IC50 is less than 100 nM.

Regarding `O=C(Nc1nc2ccc(-c3c(CF)ccc4[nH]ncc34)cc2s1)[C@@H]1C[C@@H]1F` [Example 36, (1S,2S)-2-fluoro-N-(6-(5-(fluoromethyl)-1H-indazol-4-yl)benzo[d]thiazol-2-yl)cyclopropane-1-carboxamide], the IC50 was in the range of 101 to 500 nM.

On to `O=C(Nc1cc2cc(-c3c(Cl)c(F)cc4[nH]ncc34)ccn2n1)[C@@H]1C[C@@H]1F` [Example 458, (1S,2S)-N-(5-(5-chloro-6-fluoro-1H-indazol-4-yl)pyrazolo[1,5-a]pyridin-2-yl)-2-fluorocyclopropane-1-carboxamide], for which the IC50 is less than 100 nM.

For the molecule `O=C(Nc1cn2cc(-c3c(Cl)c(F)c(Cn4ncnn4)c4[nH]ncc34)ccc2n1)[C@@H]1C[C@@H]1F` [Example 379, (1S,2S)-N-(6-(7-((2H-tetrazol-2-yl)methyl)-5-chloro-6-fluoro-1H-indazol-4-yl)imidazo[1,2-a]pyridin-2-yl)-2-fluorocyclopropane-1-carboxamide], the IC50 was less than 100 nM.

Consider `CC(=O)N(C)c1c(F)c(Cl)c(-c2ccc3nc(NC(=O)[C@@H]4C[C@@H]4F)sc3n2)c2cn[nH]c12` [Example 189, (1S,2S)-N-(5-(5-chloro-6-fluoro-7-(N-methylacetamido)-1H-indazol-4-yl)thiazolo[5,4-b]pyridin-2-yl)-2-fluorocyclopropane-1-carboxamide], for which the IC50 is less than 100 nM.

For the molecule `CCOc1c(F)c(Cl)c(-c2ccc3nc(NC(=O)[C@@H]4C[C@@H]4F)sc3n2)c2cn[nH]c12` [Example 149, (1S,2S)—N-(5-(5-chloro-7-ethoxy-6-fluoro-1H-indazol-4-yl)thiazolo[5,4-b]pyridin-2-yl)-2-fluorocyclopropane-1-carboxamide], the IC50 was less than 100 nM.

Regarding `O=C(Nc1cn2cc(-c3c(Cl)c(F)c(O)c4[nH]ncc34)ccc2n1)[C@@H]1C[C@@H]1F` [Example 295, (1S,2S)-N-(6-(5-chloro-6-fluoro-7-hydroxy-1H-indazol-4-yl)imidazo[1,2-a]pyridin-2-yl)-2-fluorocyclopropane-1-carboxamide], the IC50 is less than 100 nM.

On to `N#CCNc1c(F)c(Cl)c(-c2ccn3nc(NC(=O)[C@@H]4C[C@@H]4F)cc3c2)c2cn[nH]c12` [Example 636, (1S,2S)-N-(5-(5-chloro-7-((cyanomethyl)amino)-6-fluoro-1H-indazol-4-yl)pyrazolo[1,5-a]pyridin-2-yl)-2-fluorocyclopropane-1-carboxamide], for which the IC50 is less than 100 nM.

On to `CCNc1c(F)c(Cl)c(-c2ccc3nc(NC(=O)[C@@H]4C[C@@H]4F)cn3c2)c2cn[nH]c12` [Example 280, (1S,2S)-N-(6-(5-chloro-7-(ethylamino)-6-fluoro-1H-indazol-4-yl)imidazo[1,2-a]pyridin-2-yl)-2-fluorocyclopropane-1-carboxamide], for which the IC50 was less than 100 nM.

On to `CN(C)C(=O)c1c(F)cc2[nH]ncc2c1-c1ccn2nc(NC(=O)[C@@H]3C[C@@H]3F)cc2c1` [Example 605, 6-fluoro-4-(2-((1S,2S)-2-fluorocyclopropane-1-carboxamido)pyrazolo[1,5-a]pyridin-5-yl)-N,N-dimethyl-1H-indazole-5-carboxamide], for which the IC50 was greater than 1000 nM.

Turning to `Cc1c(F)c(OCCN(C)C(N)=O)c2[nH]ncc2c1-c1ccn2nc(NC(=O)[C@@H]3C[C@@H]3F)cc2c1` [Example 539, (1S,2S)-2-fluoro-N-(5-(6-fluoro-5-methyl-7-(2-(1-methylureido)ethoxy)-1H-indazol-4-yl)pyrazolo[1,5-a]pyridin-2-yl)cyclopropane-1-carboxamide], the IC50 was less than 100 nM.

As for `CSc1c(F)c(Cl)c(-c2ccc3nc(NC(=O)[C@@H]4C[C@@H]4F)sc3c2)c2cn[nH]c12` [Example 58, (1S,2S)-N-(6-(5-chloro-6-fluoro-7-(methylthio)-1H-indazol-4-yl)benzo[d]thiazol-2-yl)-2-fluorocyclopropane-1-carboxamide], the IC50 is less than 100 nM.
